Holding throughout (format): cell-based
The target of one test is T1, P2Y2R (Mus musculus, UniProt P35383).
T1 construct: endogenous in cells; host or cells: mouse peritoneal macrophages
Briefly: 2-S-UTP-activated [Ca2+]i shifts in mouse peritoneal macrophages. The note with it: 1 μM. The protocol: (§1) Mouse peritoneal macrophages, PC12 cells, J774 cells, and HEPG2 cells were analyzed by fluorescence microscopy to measure the intracellular Ca^2+ concentrations ([Ca^2+]i). Cells were incubated with 2 μM Fura-2-AM (Molecular Probes) for 30 min, and the [Ca^2+]i mobilization was measured in the F340/F380 ratios with a FlexStation 3 multimode microplate reader (Molecular Devices). Cells were plated in translucent 96-well plates (BD Falcon) for 15 min and then washed and incubated in a saline solution with 150 NaCl, 5 KCl, 1 MgCl2, 1 CaCl2, and 10 HEPES (pH 7.4) for 30 min before measurements of [Ca^2+]i. The Ca^2+ influx was induced by stimulating cells with P2 receptor agonists. P2 receptor antagonists were added 10 min before P2 receptor agonist addition. […] Ionomycin was considered a positive control, and the other recordings were normalized in relation to the AUC.

A further test addresses T2, P2X4R (Rattus norvegicus, UniProt P51577).
T2 construct: endogenous in cells; host or cells: NR8383 rat alveolar macrophage cell line
T2 sequence (P51577 1-388): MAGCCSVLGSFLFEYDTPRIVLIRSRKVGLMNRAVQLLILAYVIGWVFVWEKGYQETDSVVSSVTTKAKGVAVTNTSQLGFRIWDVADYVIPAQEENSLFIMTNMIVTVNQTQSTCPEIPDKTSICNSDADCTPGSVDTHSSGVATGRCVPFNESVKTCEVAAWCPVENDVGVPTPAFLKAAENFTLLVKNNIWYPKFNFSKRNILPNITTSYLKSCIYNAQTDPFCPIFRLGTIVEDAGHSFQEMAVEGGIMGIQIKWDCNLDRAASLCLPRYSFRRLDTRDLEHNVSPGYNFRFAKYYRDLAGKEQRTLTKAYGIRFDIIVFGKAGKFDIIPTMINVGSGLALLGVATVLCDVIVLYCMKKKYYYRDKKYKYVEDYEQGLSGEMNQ
Briefly: ATP-induced [Ca2+]i shifts potentiated by ivermectin in NR8383 alveolar macrophage cell line. To be noted: 1 μM; NR8383 cells.

In another test the target is T3, P2Y13R (Homo sapiens, UniProt Q9BPV8).
T3 construct: endogenous in cells; host or cells: HEP2G (HEPG2) cells
T3 sequence (Q9BPV8 1-354): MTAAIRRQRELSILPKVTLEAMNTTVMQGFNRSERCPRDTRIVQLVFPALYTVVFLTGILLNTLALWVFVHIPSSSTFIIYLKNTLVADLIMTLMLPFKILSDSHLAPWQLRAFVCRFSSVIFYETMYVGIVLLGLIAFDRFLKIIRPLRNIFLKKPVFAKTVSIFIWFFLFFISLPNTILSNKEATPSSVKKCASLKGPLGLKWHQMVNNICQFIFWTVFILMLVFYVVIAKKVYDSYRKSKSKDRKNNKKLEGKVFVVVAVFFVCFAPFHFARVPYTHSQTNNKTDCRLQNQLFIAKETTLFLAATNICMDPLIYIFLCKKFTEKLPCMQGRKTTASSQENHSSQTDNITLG
Briefly: ADPβS-induced [Ca2+]i shifts in HEP2G cells. To be noted: 1 μM. The protocol: as §1

Another test concerns the target T4, P2Y1R (Mus musculus, UniProt P49650).
T4 construct: endogenous in cells; host or cells: mouse peritoneal macrophages
Kind of test: ADP-induced [Ca2+]i shifts in mouse peritoneal macrophages. The note with it: 1 μM. The protocol: as §1

The target in another test is T5, P2X1R (Mus musculus, UniProt P51576).
T5 construct: endogenous in cells; host or cells: J774 cells
T5 sequence (P51576 1-399): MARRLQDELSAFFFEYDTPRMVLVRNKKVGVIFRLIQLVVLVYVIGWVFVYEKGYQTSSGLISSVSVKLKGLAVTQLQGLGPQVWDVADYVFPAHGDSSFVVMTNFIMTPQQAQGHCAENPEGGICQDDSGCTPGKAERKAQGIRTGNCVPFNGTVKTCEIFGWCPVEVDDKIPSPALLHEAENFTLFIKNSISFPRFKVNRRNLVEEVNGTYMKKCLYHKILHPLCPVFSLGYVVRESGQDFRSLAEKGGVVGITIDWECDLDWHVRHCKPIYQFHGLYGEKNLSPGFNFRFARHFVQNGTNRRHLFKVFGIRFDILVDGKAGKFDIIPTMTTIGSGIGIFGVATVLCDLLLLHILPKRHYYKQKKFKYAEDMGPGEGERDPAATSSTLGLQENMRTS
Briefly: β,γ-meATP-induced intracellular Ca2+ mobilization in J774 cells. The note with it: 10 μM. The protocol: as §1
Background: A change in cytosolic calcium serves as a functional read-out for many receptors and channels.

The target of a further test is T6, P2X2R (Rattus norvegicus, UniProt P49653).
T6 construct: endogenous in cells; host or cells: PC12 cells
T6 sequence (P49653 1-472): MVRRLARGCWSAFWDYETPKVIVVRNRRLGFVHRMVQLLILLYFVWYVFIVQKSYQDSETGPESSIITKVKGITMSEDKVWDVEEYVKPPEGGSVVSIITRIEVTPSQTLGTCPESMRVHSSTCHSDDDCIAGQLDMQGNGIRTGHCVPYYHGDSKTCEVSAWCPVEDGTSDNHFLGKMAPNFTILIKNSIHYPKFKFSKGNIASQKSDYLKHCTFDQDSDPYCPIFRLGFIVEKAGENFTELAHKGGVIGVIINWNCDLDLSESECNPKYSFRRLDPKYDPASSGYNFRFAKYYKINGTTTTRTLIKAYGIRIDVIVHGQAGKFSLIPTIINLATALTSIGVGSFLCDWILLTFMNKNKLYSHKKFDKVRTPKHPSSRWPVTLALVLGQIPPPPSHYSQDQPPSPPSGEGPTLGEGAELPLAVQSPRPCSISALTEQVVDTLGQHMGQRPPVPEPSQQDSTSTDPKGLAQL
Kind of test: ATP-induced [Ca2+]i shifts in PC12 cells. To be noted: 1 μM. The protocol: as §1

The target in another test is T7, P2Y14R (Mus musculus, UniProt Q9ESG6).
T7 construct: endogenous in cells; host or cells: mouse peritoneal macrophages
T7 sequence (Q9ESG6 1-338): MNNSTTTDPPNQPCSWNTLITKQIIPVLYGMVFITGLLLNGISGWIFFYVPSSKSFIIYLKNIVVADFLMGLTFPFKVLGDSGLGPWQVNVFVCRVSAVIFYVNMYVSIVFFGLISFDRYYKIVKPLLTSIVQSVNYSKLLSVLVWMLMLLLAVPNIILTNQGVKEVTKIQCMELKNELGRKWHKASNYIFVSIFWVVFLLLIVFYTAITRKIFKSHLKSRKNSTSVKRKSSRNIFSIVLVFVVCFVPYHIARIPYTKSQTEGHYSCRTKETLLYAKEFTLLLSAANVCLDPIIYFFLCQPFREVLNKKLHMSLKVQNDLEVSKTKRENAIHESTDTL
Briefly: UDP-glucose-activated [Ca2+]i shifts in mouse peritoneal macrophages. The note with it: 1 μM. As to the method: as §1

The next test has as its system P2X3R. Briefly: α,β-meATP-induced [Ca2+]i shift. The note with it: 10 μM. As to the method:
as §1

Structures are written as SMILES.

T4 sequence (P49650 whole entry): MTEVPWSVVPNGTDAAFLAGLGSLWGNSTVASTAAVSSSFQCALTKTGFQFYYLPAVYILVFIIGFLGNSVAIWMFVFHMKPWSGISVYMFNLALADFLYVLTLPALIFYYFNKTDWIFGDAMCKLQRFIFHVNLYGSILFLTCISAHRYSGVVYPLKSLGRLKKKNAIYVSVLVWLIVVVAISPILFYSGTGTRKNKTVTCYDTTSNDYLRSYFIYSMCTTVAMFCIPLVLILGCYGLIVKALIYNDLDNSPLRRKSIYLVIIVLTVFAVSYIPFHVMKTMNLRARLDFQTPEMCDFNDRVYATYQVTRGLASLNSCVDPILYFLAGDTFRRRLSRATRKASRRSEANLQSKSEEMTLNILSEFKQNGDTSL
T1 sequence (P35383 whole entry): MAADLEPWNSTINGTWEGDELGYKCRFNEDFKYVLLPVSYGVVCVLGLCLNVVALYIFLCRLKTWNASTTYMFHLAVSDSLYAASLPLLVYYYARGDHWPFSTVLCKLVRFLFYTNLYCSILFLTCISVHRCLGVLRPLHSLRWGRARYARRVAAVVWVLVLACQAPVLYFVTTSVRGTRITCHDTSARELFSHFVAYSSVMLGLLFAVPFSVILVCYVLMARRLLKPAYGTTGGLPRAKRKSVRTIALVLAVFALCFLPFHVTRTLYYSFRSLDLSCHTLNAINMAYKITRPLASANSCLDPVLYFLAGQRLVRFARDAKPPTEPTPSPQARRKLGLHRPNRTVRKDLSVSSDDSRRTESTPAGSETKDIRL

As for `Cc1ccc2c(c1)C=Cc1cc(C)ccc1C2c1cn(Cc2ccc(C(=O)Nc3nn[nH]n3)o2)c(=O)[nH]c1=S` [AR-C 118925XX], on P2Y2R, the “Effect on 2-S-UTP-activated [Ca2+]i shifts” value is on record as “inhibited”.

In the case of `O=C1CN=C(c2cccc(Br)c2)c2oc3ccccc3c2N1` [Compound 5BDBD], the “Effect on ATP-induced [Ca2+]i shifts potentiated by 1 μM ivermectin” value at P2X4R is on record as “inhibited”.

Take `Cc1nc(N=Nc2cc([N+](=O)[O-])ccc2Cl)c(COP(=O)(O)O)c(C=O)c1O` [MRS2211]: the “Effect on ADPβS-induced [Ca2+]i shifts” value on P2Y13R is listed as “inhibited”.

In the case of `CNc1ncnc2c1ncn2[C@H]1C[C@H](OP(=O)(O)O)[C@@H](COP(=O)(O)O)O1` [MRS 2179], the “Effect on ADP-induced [Ca2+]i shifts” value on P2Y1R is “inhibited”.

With `O=C(Nc1cccc(C(=O)Nc2ccc(S(=O)(=O)O)c3cc(S(=O)(=O)O)cc(S(=O)(=O)O)c23)c1)Nc1cccc(C(=O)Nc2ccc(S(=O)(=O)O)c3cc(S(=O)(=O)O)cc(S(=O)(=O)O)c23)c1` [NF023, reference compound], at P2X1R, the “Effect on β,γ-meATP-induced intracellular Ca2+ mobilization” value is “inhibited”.

As to `COc1cc(S(=O)(=O)O)cc2cc(S(=O)(=O)O)c(NC(=O)c3ccc(C)c(NC(=O)c4cccc(NC(=O)Nc5cccc(C(=O)Nc6cc(C(=O)Nc7cc8c(OC)cc(S(=O)(=O)O)cc8cc7S(=O)(=O)O)ccc6C)c5)c4)c3)cc12` [NF770], the “Effect on ATP-induced [Ca2+]i shifts” value on P2X2R was “inhibited”.

`O=C(O)c1cc(-c2ccc(C3CCNCC3)cc2)c2ccc(-c3ccc(C(F)(F)F)cc3)cc2c1` [PPNT]: the “Effect on UDP-glucose-activated [Ca2+]i shifts” value at P2Y14R was “inhibited”.

Take `Nc1ncnc2c1ncn2[C@@H]1O[C@H](COP(=O)(O)OP(=O)(O)OP(=O)(O)O)[C@H]2OC3(O[C@H]21)C([N+](=O)[O-])=CC(=[N+]([O-])[O-])C=C3[N+](=O)[O-]` (some centres unmarked) [TNP-ATP, reference compound]: the “Effect on activity of P2X3R agonist α,β-meATP” value in the test with P2X3R was “inhibited”.

The values above are taken from PMC6511888, “Synthesis, Biological Evaluation, and Molecular Modeling Studies of New Thiadiazole Derivatives as Potent P2X7 Receptor Inhibitors” (Frontiers in Chemistry, 2019).
